Results as given in PubChem BioAssay (NCI).
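Each compound was tested at five concentrations against cells in 96-well plates for 48 hours. GI50 = concentration required for 50% inhibition of growth. TGI denotes the concentration required for complete inhibition of growth.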

Assays:
Experiment in all cases: NCI tumour cell line growth inhibition, 48 h
CCRF-CEM leukemia = system: CCRF-CEM leukemia
U251 CNS = system: U251 CNS
PC-3 prostate = system: PC-3 prostate
SNB-75 CNS = system: SNB-75 CNS
NCI/ADR-RES ovarian = system: NCI/ADR-RES ovarian
HL-60(TB) leukemia = system: HL-60(TB) leukemia
EKVX NSCLC = system: EKVX NSCLC
NCI-H23 lung = system: NCI-H23 lung
SF-295 CNS = system: SF-295 CNS
NCI-H460 lung = system: NCI-H460 lung
M14 melanoma = system: M14 melanoma
SK-MEL-28 melanoma = system: SK-MEL-28 melanoma
SNB-19 CNS = system: SNB-19 CNS
SK-MEL-5 melanoma = system: SK-MEL-5 melanoma
A498 renal = system: A498 renal
MDA-MB-435 = system: MDA-MB-435
DU-145 prostate = system: DU-145 prostate
UACC-62 melanoma = system: UACC-62 melanoma
MALME-3M melanoma = system: MALME-3M melanoma
IGROV1 ovarian = system: IGROV1 ovarian
SK-MEL-2 melanoma = system: SK-MEL-2 melanoma
NCI-H226 lung = system: NCI-H226 lung
786-0 renal = system: 786-0 renal
HT29 colon = system: HT29 colon
ACHN renal = system: ACHN renal
TK-10 renal = system: TK-10 renal
SR leukemia = system: SR leukemia
SF-539 CNS = system: SF-539 CNS
HCT-116 colon = system: HCT-116 colon
OVCAR-5 ovarian = system: OVCAR-5 ovarian
OVCAR-4 ovarian = system: OVCAR-4 ovarian
UACC-257 melanoma = system: UACC-257 melanoma
KM12 colon = system: KM12 colon
RPMI-8226 leukemia = system: RPMI-8226 leukemia
HCC-2998 colon = system: HCC-2998 colon
BT-549 breast = system: BT-549 breast
SN12C renal = system: SN12C renal
NCI-H522 lung = system: NCI-H522 lung
OVCAR-8 ovarian = system: OVCAR-8 ovarian
T-47D breast = system: T-47D breast
CAKI-1 renal = system: CAKI-1 renal
A549 NSCLC = system: A549 NSCLC
OVCAR-3 ovarian = system: OVCAR-3 ovarian
SF-268 CNS = system: SF-268 CNS
MCF7 breast = system: MCF7 breast
LOX IMVI melanoma = system: LOX IMVI melanoma
HOP-92 NSCLC = system: HOP-92 NSCLC
COLO 205 colon = system: COLO 205 colon
HS 578T breast = system: HS 578T breast
SK-OV-3 ovarian = system: SK-OV-3 ovarian
MDA-MB-231 breast = system: MDA-MB-231 breast
K-562 leukemia = system: K-562 leukemia
HOP-62 NSCLC = system: HOP-62 NSCLC
HCT-15 colon = system: HCT-15 colon
MOLT-4 leukemia = system: MOLT-4 leukemia
SW-620 colon = system: SW-620 colon
RXF 393 renal = system: RXF 393 renal
UO-31 renal = system: UO-31 renal

Cn1cc(-c2ccc3c(c2)ncn3-c2ccc(CC(=O)Nc3cc(C(C)(C)C)on3)cc2)cn1
GI50 (CCRF-CEM leukemia): 3230 nM | TGI (CCRF-CEM leukemia): > 100000 nM | GI50 (U251 CNS): 2930 nM | TGI (U251 CNS): > 42700 nM | GI50 (PC-3 prostate): 2780 nM | TGI (PC-3 prostate): > 74700 nM | GI50 (SNB-75 CNS): 474 nM | TGI (SNB-75 CNS): 2870 nM | GI50 (NCI/ADR-RES ovarian): 2230 nM | TGI (NCI/ADR-RES ovarian): > 35100 nM | GI50 (HL-60(TB) leukemia): 3330 nM | TGI (HL-60(TB) leukemia): 9650 nM | GI50 (EKVX NSCLC): 1750 nM | TGI (EKVX NSCLC): 31100 nM | GI50 (NCI-H23 lung): 1880 nM | TGI (NCI-H23 lung): 17200 nM | GI50 (SF-295 CNS): 1260 nM | TGI (SF-295 CNS): > 38800 nM | GI50 (NCI-H460 lung): 2450 nM | TGI (NCI-H460 lung): > 37700 nM | GI50 (M14 melanoma): 1100 nM | TGI (M14 melanoma): 10500 nM | GI50 (SK-MEL-28 melanoma): 2650 nM | TGI (SK-MEL-28 melanoma): > 100000 nM | GI50 (SNB-19 CNS): 3500 nM | TGI (SNB-19 CNS): > 100000 nM | GI50 (SK-MEL-5 melanoma): 2500 nM | TGI (SK-MEL-5 melanoma): 15500 nM | GI50 (A498 renal): 122 nM | TGI (A498 renal): 461 nM | GI50 (MDA-MB-435): 2550 nM | TGI (MDA-MB-435): > 100000 nM | GI50 (DU-145 prostate): 1370 nM | TGI (DU-145 prostate): 9490 nM | GI50 (UACC-62 melanoma): 1530 nM | TGI (UACC-62 melanoma): 11600 nM | GI50 (MALME-3M melanoma): 1290 nM | TGI (MALME-3M melanoma): 12600 nM | GI50 (IGROV1 ovarian): 235 nM | TGI (IGROV1 ovarian): 1310 nM | GI50 (SK-MEL-2 melanoma): 1990 nM | TGI (SK-MEL-2 melanoma): 5140 nM | GI50 (NCI-H226 lung): 173 nM | TGI (NCI-H226 lung): 3270 nM | GI50 (786-0 renal): 1480 nM | TGI (786-0 renal): > 84600 nM | GI50 (HT29 colon): 2600 nM | TGI (HT29 colon): > 36700 nM | GI50 (ACHN renal): 405 nM | TGI (ACHN renal): 10900 nM | GI50 (TK-10 renal): 671 nM | TGI (TK-10 renal): 3170 nM | GI50 (SR leukemia): 1690 nM | TGI (SR leukemia): 8490 nM | GI50 (SF-539 CNS): 175 nM | TGI (SF-539 CNS): 1740 nM | GI50 (HCT-116 colon): 1890 nM | TGI (HCT-116 colon): 7430 nM | GI50 (OVCAR-5 ovarian): 1350 nM | TGI (OVCAR-5 ovarian): > 27200 nM | GI50 (OVCAR-4 ovarian): 501 nM | TGI (OVCAR-4 ovarian): 19100 nM | GI50 (UACC-257 melanoma): 3180 nM | TGI (UACC-257 melanoma): 53700 nM | TGI (KM12 colon): 14300 nM | GI50 (RPMI-8226 leukemia): 3350 nM | TGI (RPMI-8226 leukemia): > 100000 nM | GI50 (HCC-2998 colon): 8040 nM | TGI (HCC-2998 colon): > 100000 nM | GI50 (BT-549 breast): 1490 nM | TGI (BT-549 breast): 13200 nM | GI50 (SN12C renal): 379 nM | TGI (SN12C renal): 8090 nM | GI50 (NCI-H522 lung): 2270 nM | TGI (NCI-H522 lung): 13900 nM | GI50 (OVCAR-8 ovarian): 3160 nM | TGI (OVCAR-8 ovarian): > 43300 nM | GI50 (T-47D breast): 683 nM | TGI (T-47D breast): 25500 nM | GI50 (CAKI-1 renal): 782 nM | TGI (CAKI-1 renal): 2430 nM | GI50 (A549 NSCLC): 1490 nM | TGI (A549 NSCLC): 8760 nM | GI50 (OVCAR-3 ovarian): 2060 nM | TGI (OVCAR-3 ovarian): > 39800 nM | GI50 (SF-268 CNS): 674 nM | TGI (SF-268 CNS): > 46500 nM | GI50 (MCF7 breast): 1550 nM | TGI (MCF7 breast): > 52000 nM | GI50 (LOX IMVI melanoma): 732 nM | TGI (LOX IMVI melanoma): 4870 nM | GI50 (HOP-92 NSCLC): 227 nM | TGI (HOP-92 NSCLC): 1420 nM | GI50 (COLO 205 colon): 1950 nM | TGI (COLO 205 colon): 5240 nM | GI50 (HS 578T breast): 187 nM | TGI (HS 578T breast): 1460 nM | GI50 (SK-OV-3 ovarian): 1010 nM | TGI (SK-OV-3 ovarian): 4330 nM | GI50 (MDA-MB-231 breast): 1230 nM | TGI (MDA-MB-231 breast): 3600 nM | GI50 (K-562 leukemia): 28.4 nM | TGI (K-562 leukemia): > 100000 nM | GI50 (HOP-62 NSCLC): 1410 nM | TGI (HOP-62 NSCLC): 29400 nM | GI50 (HCT-15 colon): 1190 nM | TGI (HCT-15 colon): > 40900 nM | GI50 (MOLT-4 leukemia): 1580 nM | TGI (MOLT-4 leukemia): > 100000 nM | GI50 (SW-620 colon): 2440 nM | TGI (SW-620 colon): > 100000 nM | GI50 (RXF 393 renal): 173 nM | TGI (RXF 393 renal): 908 nM | GI50 (UO-31 renal): 224 nM | TGI (UO-31 renal): 2200 nM
